# Assay results reported in PubChem BioAssay AID1845228.
# Values joined by “and” are separate entries in the source; they are usually repeats but may differ in a detail not shown here. Equal entries are not always repeated. Numbered stars: 1 amine (or outer) side, 2 acyl side, 3 side chain; on linkers, the order of the positions; unused ones are H or OH. Bridge positions count the residues as written; N and C are the ends. Square brackets hold non-standard residues; d marks the D form. Peptide text beside a SMILES is read from it. I, II: the chains in the order shown. Actinocin(9to1) = Cc1c2oc3c(C)ccc(C(=O)[*:1])c3nc-2c(C(=O)[*:2])c(N)c1=O; NMeV = CN[C@H](C(=O)O)C(C)C; Sar = CNCC(=O)O
# Details: pampa; 60.0 min; 50.0 µM
row,Structure (SMILES),Papp
1,O=C(NCC1CCOCC1)c1cnc(Nc2ccc(Cl)cc2Cl)nc1C(F)(F)F,< 1 ×10⁻⁶ cm/s
2,CC1(C)S[C@@H]2[C@@H](N3C(=O)[C@@H](c4ccccc4)NC3(C)C)C(=O)N2[C@H]1C(=O)O,> 300 ×10⁻⁶ cm/s
3,O=C(O)Cc1ccc2c(c1)C(=O)c1ccccc1CO2,< 1 ×10⁻⁶ cm/s
4,COc1ccc(Cn2c(-c3ccccc3)c(-c3ccccc3)c3c(=N)n(CC(OC)OC)cnc32)cc1,272 ×10⁻⁶ cm/s
5,O=C1c2c(O)ccc(O)c2C(=O)c2c(NCCNCCO)ccc(NCCNCCO)c21,19 ×10⁻⁶ cm/s
6,COCCn1cnc2c(c(-c3ccccc3)c(-c3ccccc3)n2Cc2ccc(OC)cc2)c1=N,231 ×10⁻⁶ cm/s
7,Cc1cc(C)nc(NC(=S)N2CCN(c3ccc(C(F)(F)F)cn3)CC2)c1,137 ×10⁻⁶ cm/s
8,CN(C(=O)/C=C/c1ccoc1)[C@@H]1CC[C@@]2(O)[C@H]3Cc4ccc(O)c5c4[C@@]2(CCN3CC2CC2)[C@H]1O5,13 ×10⁻⁶ cm/s
9,CO/S(=N\S(=O)(=O)c1ccc(Cl)cc1)c1ccc([N+](=O)[O-])cc1 (stereo unspecified),4 ×10⁻⁶ cm/s
10,Nc1ncnc2c1ncn2CCNCCCCCO,< 1 ×10⁻⁶ cm/s
11,CC(=CCCC1=CCC(C2=CC(=O)OC2O)OC1O)CCC1=C(C)CCCC1(C)C (stereo unspecified),9.8 ×10⁻⁶ cm/s
12,O=C1Nc2ccc(C(=O)c3ccco3)cc2/C1=C/c1cc(Cl)c(O)c(Cl)c1,38 ×10⁻⁶ cm/s
13,NNC(=O)c1ccncc1,3 ×10⁻⁶ cm/s
14,CCOC(=O)[C@H](CCc1ccccc1)N[C@@H](C)C(=O)N1C(=O)N(C)C[C@H]1C(=O)O,< 1 ×10⁻⁶ cm/s
15,Oc1ccc2nc(CN3CCC(Cc4ccccc4F)CC3)[nH]c2c1,107 ×10⁻⁶ cm/s
16,Nc1c(C(=O)Nc2ccc(Cl)c(C(F)(F)F)c2)sc2nc3c(cc12)N1CCC3CC1,213 ×10⁻⁶ cm/s
17,CC[C@@H]1C[C@]1(NC(=O)[C@@H]1C[C@@H]2CN1C(=O)[C@H](C(C)(C)C)NC(=O)OCC(C)(C)CCCCc1cccc3c1CN(C3)C(=O)O2)C(=O)NS(=O)(=O)C1CC1,10 ×10⁻⁶ cm/s
18,O=C(Cc1cccs1)NC1C(=O)N2C(C(=O)[O-])=C(C[n+]3ccccc3)CSC12 (stereo unspecified),< 1 ×10⁻⁶ cm/s
19,CCCCN(CCCC)C(=O)CN1C[C@H](c2ccc3c(c2)OCO3)[C@@H](C(=O)O)[C@@H]1c1ccc(OC)cc1,9 ×10⁻⁶ cm/s
20,COC(=O)c1cccc(Cn2cnc3c(c(-c4ccccc4)c(-c4ccccc4)n3CCc3ccccc3)c2=N)c1,27 ×10⁻⁶ cm/s
21,CC[C@@]1(O)C(=O)OCc2c1cc1n(c2=O)Cc2cc3ccccc3nc2-1,23 ×10⁻⁶ cm/s
22,O=[N+]([O-])c1nccn1CO[C@@H](CO)[C@H](O)CO,< 1 ×10⁻⁶ cm/s
23,c1nc(NC2CCCCCC2)c2cc(CNC[C@H]3CCCO3)sc2n1,105 ×10⁻⁶ cm/s

row,Structure (SMILES),Papp
1,CCC(=O)C1=C(c2ccc(F)cc2)N(C(=O)CC)n2cnnc2S1,189 ×10⁻⁶ cm/s
2,Cc1cc(CNC(=O)c2ccc3c(c2)n(CC2CC2)c(=O)n3C2CCCCC2)on1,> 300 ×10⁻⁶ cm/s
3,O=C(Nc1cnc(Cl)nc1)c1ccc(F)c(F)c1,61 ×10⁻⁶ cm/s
4,O=C(Nc1cnn2ccc(N3CCC[C@@H]3c3cc(F)ccc3F)nc12)N1CC[C@H](O)C1,3 ×10⁻⁶ cm/s
5,COc1cc2c(Nc3ccc(Cl)c(Cl)c3F)ncnc2cc1OCC1C[C@@H]2CN(C)C[C@@H]2C1 (stereo partly specified),> 300 ×10⁻⁶ cm/s
6,CC(=O)OC(C)OC(=O)C(C)c1ccc(-c2ccccc2)c(F)c1 (stereo unspecified),> 300 ×10⁻⁶ cm/s
7,CC(C)C[C@H](NC(=O)CNC(=O)c1cc(Cl)ccc1Cl)B1OC(=O)C(CC(=O)O)(CC(=O)O)O1,< 1 ×10⁻⁶ cm/s
8,O=C(O)C1CN(Cc2ccc(-c3nc4cc(Cc5ccccc5F)ccc4s3)c(F)c2)C1,> 300 ×10⁻⁶ cm/s
9,O=C(C[C@@H]1NCCC[C@H]1O)Cn1cnc2cc(Br)c(Cl)cc2c1=O,43 ×10⁻⁶ cm/s
10,Cc1ccc(CN2C(=O)C(=O)c3cc(Br)cc(C)c32)cc1,98.5 ×10⁻⁶ cm/s
11,C/C1=C\CC[C@]2(C)O[C@H]2C(=O)c2c(C)coc2C1,122 ×10⁻⁶ cm/s
12,CNC(=O)C1CCN(C(=O)c2ccc(-c3ncc4cnc(-c5ccccc5)cn34)cc2)CC1,12 ×10⁻⁶ cm/s
13,O=C(Nc1ccccc1)N1CCC(Cc2cnc3ccccc3c2)CC1,> 300 ×10⁻⁶ cm/s
14,NC(=O)OC[C@@H]1[C@H](NC(=O)/C(=N\OCC(=O)O)c2csc(N)n2)C(=O)N1S(=O)(=O)O,< 1 ×10⁻⁶ cm/s
15,CC(C)(C)c1ccc2c(c1)CC[C@H]2NC(=O)Nc1cccc2[nH]ncc12,< 1 ×10⁻⁶ cm/s
16,Cn1nnnc1Sc1ncnc2scc(-c3cccs3)c12,244 ×10⁻⁶ cm/s
17,N#Cc1ccnc(Nc2cc(C3CCN(C4COC4)CC3)cc(N3CCC(F)(F)C3)n2)c1,133 ×10⁻⁶ cm/s
18,C[C@@H](O)[C@H]1C(=O)N2C(C(=O)O)=C([C@H]3CCCO3)S[C@H]12,< 1 ×10⁻⁶ cm/s
19,CC1=C2C[C@H]3[C@@H](CC[C@@H]4C[C@H](NS(C)(=O)=O)CC[C@@]43C)[C@@H]2CC[C@@]2(C1)O[C@@H]1C[C@H](C)CN[C@H]1[C@H]2C,132 ×10⁻⁶ cm/s
20,CC(C)C[C@@H](C(=O)N[C@@H](Cc1ccc(OCc2ccccc2)cc1)C(=O)NC(C)(C)C)N(C)Cc1ccc(C(C)(C)C)cc1,> 300 ×10⁻⁶ cm/s
21,CO[C@@]1(NC(=O)C2SC(=C(C(N)=O)C(=O)O)S2)C(=O)N2C(C(=O)O)=C(CSc3nnnn3C)CS[C@@H]21 (stereo partly specified),< 1 ×10⁻⁶ cm/s
22,C[C@@H]1C[C@@H](O)[C@]2(O)O[C@@H]3C[C@@]4(C=O)C(CC[C@@H]5C4CC[C@]4(C)[C@@H](C6=CC(=O)OC6)CC[C@]54O)C[C@H]3O[C@@H]2O1 (stereo partly specified),< 1 ×10⁻⁶ cm/s
23,Cc1ccccc1NC(=O)Nc1ccc(CC(=O)N(C)[C@@H](CC(C)C)C(=O)NCC[C@H](NC(=O)[C@@H]2CCCN2S(=O)(=O)c2cc(Cl)cc(Cl)c2)C(=O)O)cc1,5 ×10⁻⁶ cm/s

row,Structure (SMILES),Papp
1,C[C@H]([C@@H](O)c1ccccc1)n1cnc2c(c(-c3ccccc3)c(-c3ccccc3)n2Cc2ccccc2)c1=N,3 ×10⁻⁶ cm/s
2,C1=C(c2cnc[nH]2)c2ccsc2CC1,5 ×10⁻⁶ cm/s
3,CC(=O)OC[C@@H]1O[C@@H](n2ccc(=O)[nH]c2=O)[C@H](OC(C)=O)[C@H]1OC(C)=O,< 1 ×10⁻⁶ cm/s
4,CC1=C(/C=C/C(C)=C/C=C/C(C)=C/C(=O)O)C(C)(C)CCC1,< 1 ×10⁻⁶ cm/s
5,C1CCC(COCCc2noc(C3CNC3)n2)C1,< 1 ×10⁻⁶ cm/s
6,N=c1c2c(-c3ccccc3)c(-c3ccccc3)n(CCc3ccccc3)c2ncn1[C@H](CO)Cc1ccccc1,< 1 ×10⁻⁶ cm/s
7,N#Cc1ccc(C(=O)N2CCC3(CC2)N=C(N)c2c(F)ccc(F)c2N3)cn1,4 ×10⁻⁶ cm/s
8,O=C(NCCc1cnc[nH]1)c1ccc(-c2ncc3cnc(-c4cccc(F)c4)cn23)cc1,< 1 ×10⁻⁶ cm/s
9,CC(=O)OCC1=C(C(=O)O)N2C(=O)[C@@H](N)[C@H]2SC1,< 1 ×10⁻⁶ cm/s
10,"Cc1c2oc3c(C)ccc(C(=O)N[C@@H]4C(=O)N[C@H](C(C)C)C(=O)N5CCC[C@H]5C(=O)N(C)CC(=O)N(C)[C@@H](C(C)C)C(=O)O[C@@H]4C)c3nc-2c(C(=O)N[C@@H]2C(=O)N[C@H](C(C)C)C(=O)N3CCC[C@H]3C(=O)N(C)CC(=O)N(C)[C@@H](C(C)C)C(=O)O[C@@H]2C)c(N)c1=O (I: T[dV]P[Sar][NMeV] / II: T[dV]P[Sar][NMeV]; ester I:1-I:C, II:1-II:C; linker I:N-II:N via Actinocin(9to1))",6 ×10⁻⁶ cm/s and 13 ×10⁻⁶ cm/s
11,O=C(c1ccc(-c2ncc3cnc(-c4cccc(F)c4)cn23)cc1)N1CC(O)C1,27 ×10⁻⁶ cm/s
12,N=c1c2c(-c3ccccc3)cn(Cc3ccccc3)c2ncn1[C@H](CO)Cc1ccccc1,22 ×10⁻⁶ cm/s
13,C/C(=C\c1csc(C)n1)[C@@H]1C[C@@H]2O[C@]2(C)CCC[C@H](C)[C@H](O)[C@@H](C)C(=O)C(C)(C)[C@@H](O)CC(=O)N1,1.7 ×10⁻⁶ cm/s
14,CCCC(C)(COC(N)=O)COC(=O)NC(C)C (stereo unspecified),11 ×10⁻⁶ cm/s
15,CC(=O)OCC1=C(C(=O)O)N2C(=O)[C@@H](NC(=O)[C@H](N)c3ccccc3)[C@H]2SC1,< 1 ×10⁻⁶ cm/s
16,Cn1c2cc(C=O)sc2c2cnn(Cc3ccccc3F)c(=O)c21,270 ×10⁻⁶ cm/s
17,O=C(CCl)Nc1cccc(NC2=NS(=O)(=O)c3ccccc32)c1,5.9 ×10⁻⁶ cm/s
18,Cc1ccc(NC(=O)c2ccc(CN3CCNCC3)cc2)cc1Nc1nccc(-c2cccnc2)n1,19 ×10⁻⁶ cm/s
19,C/C(=C(\CCOC(=O)C(C)C)SS/C(CCOC(=O)C(C)C)=C(/C)N(C=O)Cc1cnc(C)nc1N)N(C=O)Cc1cnc(C)nc1N,3 ×10⁻⁶ cm/s
20,CN1CCN(c2ccc(C(=O)Nc3n[nH]c4ccc(Cc5cc(F)cc(F)c5)cc34)c(NC3CCOCC3)c2)CC1,113 ×10⁻⁶ cm/s
21,O=C(Nc1ccc2[nH]c(=O)oc2c1)C(=O)N1CCC(Cc2ccc(F)cc2)CC1,207 ×10⁻⁶ cm/s
22,O=C(NCc1cnccn1)c1ccc(-c2ncc3cnc(-c4cccc(F)c4)cn23)cc1,94 ×10⁻⁶ cm/s
23,CCC1=C[C@@H]2CN(C1)Cc1c([nH]c3ccccc13)[C@@](C(=O)OC)(c1cc3c(cc1OC)N(C)[C@H]1[C@@](O)(C(=O)OC)[C@H](OC(C)=O)[C@]4(CC)C=CCN5CC[C@]31[C@@H]54)C2,30 ×10⁻⁶ cm/s

row,Structure (SMILES),Papp
1,N=c1c2c(-c3ccccc3)c(-c3ccccc3)n(Cc3ccccc3)c2ncn1CCO,223 ×10⁻⁶ cm/s
2,CC(=O)OCC1=C(C(=O)O)N2C(=O)C(NC(=O)CCCC(N)C(=O)O)C2SC1 (stereo unspecified),2 ×10⁻⁶ cm/s
3,Cc1cccc(NC(=O)c2ccc(C(F)(F)F)cc2C(=O)O)n1,< 1 ×10⁻⁶ cm/s
4,Cc1ccnc2c1NC(=O)c1cccnc1N2C1CC1,26 ×10⁻⁶ cm/s
5,CCOc1ccc2ccccc2c1C(=O)N[C@@H]1C(=O)N2[C@@H]1SC(C)(C)[C@@H]2C(=O)O,< 1 ×10⁻⁶ cm/s
6,O=C(N[C@@H](CO)[C@H](O)c1ccc([N+](=O)[O-])cc1)C(Cl)Cl,3 ×10⁻⁶ cm/s
7,Cn1nnnc1Sc1ncnc2scc(-c3ccc([N+](=O)[O-])cc3)c12,93 ×10⁻⁶ cm/s
8,CCN(CC)CCNC(=O)c1c(C)[nH]c(/C=C2\C(=O)Nc3ccc(F)cc32)c1C,56 ×10⁻⁶ cm/s
9,N=c1c2c(-c3ccccc3)c(-c3ccccc3)n(CCc3ccccc3)c2ncn1C1CCN(Cc2ccccc2)CC1,14 ×10⁻⁶ cm/s
10,CNc1oc(-c2cccc(Cl)c2Cl)nc1C#N,124 ×10⁻⁶ cm/s
11,Cc1ccnc(NC(c2cccc(O)c2)c2ccc3ccc(C)nc3c2O)c1 (stereo unspecified),115 ×10⁻⁶ cm/s
12,N=c1c2c(-c3ccccc3)c(-c3ccccc3)n(CCc3ccccc3)c2ncn1CC1CCCO1 (stereo unspecified),269 ×10⁻⁶ cm/s
13,Cc1ccc(=O)n(-c2ccccc2)c1,14 ×10⁻⁶ cm/s
14,O=C(NCCCO)c1ccc(-c2ncc3cnc(-c4cccc(F)c4)cn23)cc1,46 ×10⁻⁶ cm/s
15,O=C(NCCO)c1cc(C(=O)NCCO)cc(C(=O)NCCO)c1,< 1 ×10⁻⁶ cm/s
16,COc1ccc2c(c1)C(c1ccc(F)cc1)=C(CN1CCCC1)CO2,100 ×10⁻⁶ cm/s
17,Cc1onc(-c2c(Cl)cccc2Cl)c1CC(=O)NCc1ccc(OCC(F)(F)F)nc1,204 ×10⁻⁶ cm/s
18,FC(F)(F)c1ccccc1-c1cc(C(F)(F)F)c2nc(C3=NOC4(CCCCC4)C3)[nH]c2c1,8 ×10⁻⁶ cm/s
19,CCOC(CCCn1cnc2c(c(-c3ccccc3)c(-c3ccccc3)n2Cc2ccccc2)c1=N)OCC,228 ×10⁻⁶ cm/s
20,C[C@@H]1COCCN1c1cc(C2(S(C)(=N)=O)CC2)nc(-c2ccnc3[nH]ccc23)n1 (stereo partly specified),33 ×10⁻⁶ cm/s
21,CNc1ncc(-c2ccc3c(=O)c(C(=O)O)cn(C4CC4)c3c2C)cc1C,3 ×10⁻⁶ cm/s
22,CCCCC/C=C/C(=O)CCc1ccc(O)c(OC)c1,187 ×10⁻⁶ cm/s
